Results from patent US20240158446A1, “CYCLIC COMPOUND HAVING SELECTIVE INHIBITORY ACTION ON KRAS OVER HRAS AND NRAS” (CHUGAI SEIYAKU KABUSHIKI KAISHA, priority 2021, published 2024).
pIC50, pKd: −log10 of the molar value. Where two headings read alike, the source gives them in different places. Where a SMILES comes first, the peptide text is derived from it. Bridges are numbered along the chain shown (N, C = ends). [ ]: non-standard residue; d: D form. The star is where a group is joined. hPhe(3-Cl-4-CF3) = N[C@@H](CCc1ccc(C(F)(F)F)c(Cl)c1)C(=O)O; NPrPhe(4-CF3) = CCCN[C@@H](Cc1ccc(C(F)(F)F)cc1)C(=O)O; NMeGly(cPent) = CN[C@H](C(=O)O)C1CCCC1; NMeD = CN[C@@H](CC(=O)O)C(=O)O; NMeNva = CCC[C@H](NC)C(=O)O; Morpholide = C1CN(*)CCO1; Ac4c = NC1(C(=O)O)CCC1; NPrGly = CCCNCC(=O)O; Sar = CNCC(=O)O

Legend:
[1] = biological target: GDP-bound HRAS wild-type protein (Homo sapiens, UniProt P01112); assay: Binding to HRAS by surface plasmon resonance (SPR), Single Cycle Kinetics; settings: for HRAS/KRAS (ratio of KD value for HRAS to KD value for KRAS): GDP-bound HRAS wild-type protein vs GDP-bound KRAS wild-type protein; for HRAS/KRAS (ratio of KD value with respect to GDP-bound HRAS wild-type protein to KD value with respect to KRAS): SPR KD ratio HRAS/KRAS, class symbols
Chain of GDP-bound HRAS wild-type protein (P01112 whole entry): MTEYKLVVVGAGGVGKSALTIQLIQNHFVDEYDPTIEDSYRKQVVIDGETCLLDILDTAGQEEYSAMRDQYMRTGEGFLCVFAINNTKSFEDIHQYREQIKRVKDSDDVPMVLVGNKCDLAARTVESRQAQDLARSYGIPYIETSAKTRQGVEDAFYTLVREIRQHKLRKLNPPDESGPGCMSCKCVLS

[2] = tested on: human lung cancer strain NCI-H441;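 further: cell proliferation inhibition after four days measured by CellTiter-Glo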
[3] = biological target: GDP-bound NRAS wild-type protein (Homo sapiens, UniProt P01111); assay: Binding to NRAS by surface plasmon resonance (SPR), Single Cycle Kinetics; settings: for NRAS/KRAS (ratio of KD value for NRAS to KD value for KRAS): GDP-bound NRAS wild-type protein vs GDP-bound KRAS wild-type protein; for NRAS/KRAS (ratio of KD value with respect to GDP-bound NRAS wild-type protein to KD value with respect to KRAS): SPR KD ratio NRAS/KRAS, class symbols
Chain of GDP-bound NRAS wild-type protein (P01111 whole entry): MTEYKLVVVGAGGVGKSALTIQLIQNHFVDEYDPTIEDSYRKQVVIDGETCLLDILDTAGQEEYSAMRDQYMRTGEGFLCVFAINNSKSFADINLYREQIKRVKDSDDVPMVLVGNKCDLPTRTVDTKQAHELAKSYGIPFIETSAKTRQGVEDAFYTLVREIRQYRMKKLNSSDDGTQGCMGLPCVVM

[4] = biological target: GDP-bound KRAS wild-type protein (Homo sapiens, UniProt P01116); assay: Binding to KRAS by surface plasmon resonance (SPR), Single Cycle Kinetics; settings: GDP-bound KRAS wild-type protein, read-out: KRAS KD
Chain of GDP-bound KRAS wild-type protein (P01116 whole entry): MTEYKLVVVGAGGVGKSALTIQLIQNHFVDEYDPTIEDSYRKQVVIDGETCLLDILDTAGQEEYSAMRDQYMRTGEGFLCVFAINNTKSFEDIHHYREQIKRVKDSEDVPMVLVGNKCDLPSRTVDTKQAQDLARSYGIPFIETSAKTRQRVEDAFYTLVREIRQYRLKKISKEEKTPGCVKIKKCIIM

[5] = SPR, Single Cycle Kinetics, 1:1 binding model
[6] = SPR Single Cycle Kinetics, 1:1 binding model

SMILES	HRAS/KRAS (ratio of KD value for HRAS to KD value for KRAS) ([1]; SPR, KD ratio class)	pIC50 [2]	NRAS/KRAS (ratio of KD value for NRAS to KD value for KRAS) ([3]; SPR, KD ratio class)	pKd [4, 5]	pKd ([4]; SPR, Single Cycle Kinetics)	HRAS/KRAS (ratio of KD value for HRAS to KD value for KRAS) ([1]; SPR)	NRAS/KRAS (ratio of KD value for NRAS to KD value for KRAS) ([3]; SPR)	also measured
CC[C@H](C)[C@@H]1NC(=O)[C@H](CC)N(C)C(=O)C[C@@H](C(=O)N(C)C)N(C)C(=O)[C@H](C2CCCC2)N(C)C(=O)C2(CCC2)NC(=O)[C@@H]2CCCN2C(=O)[C@H](CCc2cc(F)c(C(F)(F)F)c(F)c2)NC(=O)CN(C)C(=O)[C@H](CC2CCCCC2)N2CC/C=C\C[C@@H](C2=O)N(C)C(=O)CN(C)C1=O [PP1475]	A (a compound having 10 or more and less than 20 is denoted as A)	7.31	A (a compound having 10 or more and less than 20 is denoted as A)	9.26	–	–	–	–
CCC[C@H]1C(=O)N[C@@H]([C@@H](C)CC)C(=O)N(C)CC(=O)N(C)[C@H]2C/C=C\CCN(C2=O)[C@@H](Cc2ccc(C(F)F)cc2)C(=O)N(C)CC(=O)N[C@@H](CCc2ccc(Cl)c(Cl)c2)C(=O)N2C[C@H](OC(C)C)C[C@H]2C(=O)NC2(CC(C)(C)C2)C(=O)N(C)[C@@H](C(CC)CC)C(=O)N(C)[C@H](C(=O)N(C)C)CC(=O)N1C [PP2535]	–	7.57	–	–	–	–	–	HRAS/KRAS (ratio of KD value with respect to GDP-bound HRAS wild-type protein to KD value with respect to KRAS) [1]: A (a compound having 10 or more and less than 20 is denoted as A); NRAS/KRAS (ratio of KD value with respect to GDP-bound NRAS wild-type protein to KD value with respect to KRAS) [3]: AA (a compound having 20 or more is denoted as AA); pKd [4, 6]: 9.27
CCC[C@H]1C(=O)N[C@@H]([C@@H](C)CC)C(=O)N(C)CC(=O)N(CCC)CC(=O)N(CCC)[C@@H](Cc2ccc(C(F)(F)F)cc2)C(=O)N(C)CC(=O)N[C@@H](CCc2ccc(C(F)(F)F)c(Cl)c2)C(=O)N2CCC[C@H]2C(=O)NC2(CCC2)C(=O)N(C)[C@@H](C2CCCC2)C(=O)N(C)[C@H](C(=O)N2CCOCC2)CC(=O)N1C [PP1949] ([NMeNva]I[Sar][NPrGly][NPrPhe(4-CF3)][Sar][hPhe(3-Cl-4-CF3)]P[Ac4c][NMeGly(cPent)][NMeD]-Morpholide; lactam N-11)	–	–	–	–	9.04	–	–	HRAS/KRAS (KD ratio) ([1]; ratio of KD for GDP-bound HRAS wild-type protein to KD for KRAS, SPR): C (A compound having a KD ratio of 0.1 or more and less than 3 is denoted as C); pIC50 ([2]; read-out: NCI-H441 IC50, NCI-H441 cell proliferation, 4 days, CellTiter-Glo): 8.03; NRAS/KRAS (KD ratio) ([3]; ratio of KD for GDP-bound NRAS wild-type protein to KD for KRAS, SPR): C (A compound having a KD ratio of 0.1 or more and less than 3 is denoted as C)
CCO[C@@H]1C[C@H]2C(=O)NC3(CCCC3)C(=O)N(C)[C@@H](C(CC)CC)C(=O)N(C)[C@H](C(=O)N3CCCC3)CC(=O)N(C)[C@@H](COC)C(=O)N[C@@H]([C@@H](C)CC)C(=O)N(C)CC(=O)N(C)[C@H]3C/C=C\CCN(C3=O)[C@@H](CC3CCC(F)(F)CC3)C(=O)N(C)CC(=O)N[C@@H](CCc3cc(F)c(C(F)(F)F)c(F)c3)C(=O)N2C1 [PP1441]	A (a compound having 10 or more and less than 20 is denoted as A)	7.06	A (a compound having 10 or more and less than 20 is denoted as A)	9.15	–	–	–	–
CCC[C@H]1C(=O)N[C@@H]([C@@H](C)CC)C(=O)N2CCC[C@H]2C(=O)N(C)[C@H]2C/C=C\CCN(C2=O)[C@@H](CC2CCC(F)(F)CC2)C(=O)N(C)CC(=O)N[C@@H](CCc2ccc(C(F)(F)F)c(OC)c2)C(=O)N2C[C@@H](C)C[C@H]2C(=O)N(C)C2(CCC2)C(=O)N(C)[C@@H](C2CCCC2)C(=O)N(C)[C@H](C(=O)N(C)C)CC(=O)N1C [PP2380]	–	8.68	–	–	9.07	A (a compound having 10 or more and less than 20 is denoted as A)	A (a compound having 10 or more and less than 20 is denoted as A)	–
CCO[C@@H]1C[C@H]2C(=O)NC3(CCC3)C(=O)N(C)[C@@H](C3CCCC3)C(=O)N(C)[C@H](C(=O)N3CCOCC3)CC(=O)N(C)[C@@H](CC3CC3)C(=O)N[C@@H]([C@@H](C)CC)C(=O)N(C)CC(=O)N(C)[C@H]3C/C=C\CCN(C3=O)[C@@H](Cc3ccc(C)cc3)C(=O)N(C)CC(=O)N[C@@H](CCc3cc(F)c(C(F)(F)F)c(F)c3)C(=O)N2C1 [PP1408]	A (a compound having 10 or more and less than 20 is denoted as A)	7.42	A (a compound having 10 or more and less than 20 is denoted as A)	9.66	–	–	–	–
CCO[C@@H]1C[C@H]2C(=O)NC3(CC(C)(C)C3)C(=O)N(C)[C@@H](C(CC)CC)C(=O)N(C)[C@H](C(=O)N(C)C)CC(=O)N(C)[C@@H](COC)C(=O)N[C@@H]([C@@H](C)CC)C(=O)N(C)CC(=O)N(C)[C@H]3C/C=C\CCN(C3=O)[C@@H](CC3CCCCC3)C(=O)N(C)CC(=O)N[C@@H](CCc3ccc(C(F)(F)F)c(Cl)c3)C(=O)N2C1 [PP2468]	–	7.14	–	–	8.89	A (a compound having 10 or more and less than 20 is denoted as A)	AA (a compound having 20 or more is denoted as AA)	–
CCO[C@@H]1C[C@H]2C(=O)NC3(CCC3)C(=O)N(C)[C@@H](C(CC)CC)C(=O)N(C)[C@H](C(=O)N(C)C)CC(=O)N(C)[C@@H](CC)C(=O)N[C@@H]([C@@H](C)CC)C(=O)N(C)CC(=O)N(C)[C@H]3C/C=C\CCN(C3=O)[C@@H](Cc3ccc(C(F)(F)F)cc3)C(=O)N(C)CC(=O)N[C@@H](CCc3ccc(C(F)(F)F)c(OC)c3)C(=O)N2C1 [PP1207]	A (a compound having 10 or more and less than 20 is denoted as A)	7.52	AA (a compound having 20 or more is denoted as AA)	9.68	–	–	–	–
CCO[C@@H]1C[C@H]2C(=O)NC3(CCC3)C(=O)N(C)[C@@H](C(CC)CC)C(=O)N(C)[C@H](C(=O)N(C)C)CC(=O)N(C)[C@@H](C)C(=O)N[C@@H]([C@@H](C)CC)C(=O)N(C)CC(=O)N(C)[C@H]3C/C=C\CCN(C3=O)[C@@H](Cc3ccc(C(F)(F)F)cc3)C(=O)N(C)CC(=O)N[C@@H](CCc3cc(F)c(C(F)(F)F)c(F)c3)C(=O)N2C1 [PP1199, (2S,8S,12R,14S,20S,23S,27S,30S,36S,38Z)-8-[2-[3,5-difluoro-4-(trifluoromethyl)phenyl]ethyl]-12-ethoxy-20-(1-ethylpropyl)-N,N,4,19,22,26,27,32,35-nonamethyl-30-[(1S)-1-methylpropyl]-3,6,9,15,18,21,25,28,31,34,42-undecaoxo-2-[[4-(trifluoromethyl)phenyl]methyl]spiro[1,4,7,10,16,19,22,26,29,32,35-undecazatricyclo[34.5.1.0^10,14]dotetracont-38-ene-17,1′-cyclobutane]-23-carboxamide]	–	7.41	–	–	9.77	A (a compound having 10 or more and less than 20 is denoted as A)	A (a compound having 10 or more and less than 20 is denoted as A)	–
CCO[C@@H]1C[C@H]2C(=O)NC3(CCC3)C(=O)N(C)[C@@H](C3CCCC3)C(=O)N(C)[C@H](C(=O)N3CCOCC3)CC(=O)N(C)[C@@H](CC3CCCC3)C(=O)N[C@@H]([C@@H](C)CC)C(=O)N(C)CC(=O)N(C)[C@H]3C/C=C\CCN(C3=O)[C@@H](Cc3ccc(C(F)(F)F)cc3)C(=O)N(C)CC(=O)N[C@@H](CCc3cc(F)c(C(F)(F)F)c(F)c3)C(=O)N2C1 [PP1393]	A (a compound having 10 or more and less than 20 is denoted as A)	7.74	A (a compound having 10 or more and less than 20 is denoted as A)	9.72	–	–	–	–
CCC(CC)[C@H]1C(=O)N(C)[C@H](C(=O)N(C)C)CC(=O)N(C)[C@@H](COC)C(=O)N[C@@H]([C@@H](C)CC)C(=O)N(C2CC2)CC(=O)N(C)[C@H]2C/C=C\CCN(C2=O)[C@@H](Cc2ccc(C)cc2)C(=O)N(C)CC(=O)N[C@@H](CCc2cc(F)c(C(F)(F)F)c(F)c2)C(=O)N2C[C@H](OC3CCCC3)C[C@H]2C(=O)NC2(CC(C)(C)C2)C(=O)N1C [PP2619]	–	6.88	–	–	–	–	–	HRAS/KRAS (ratio of KD value with respect to GDP-bound HRAS wild-type protein to KD value with respect to KRAS) [1]: A (a compound having 10 or more and less than 20 is denoted as A); NRAS/KRAS (ratio of KD value with respect to GDP-bound NRAS wild-type protein to KD value with respect to KRAS) [3]: AA (a compound having 20 or more is denoted as AA); pKd [4, 6]: 8.92
CCCOC[C@H]1C(=O)N[C@@H]([C@@H](C)CC)C(=O)N(C)CC(=O)N(C)[C@H]2C/C=C\CCN(C2=O)[C@@H](Cc2ccc(C)cc2)C(=O)N(C)CC(=O)N[C@@H](CCc2ccc(C(F)(F)F)c(OC)c2)C(=O)N2C[C@@H](C)C[C@H]2C(=O)NC2(CC(C)(C)C2)C(=O)N(C)[C@@H](C2CCCC2)C(=O)N(C)[C@H](C(=O)N(C)C)CC(=O)N1C [PP2447]	–	8.07	–	–	9.96	B (a compound having 3 or more and less than 10 is denoted as B)	A (a compound having 10 or more and less than 20 is denoted as A)	–
CCCC[C@H]1C(=O)N[C@@H]([C@@H](C)CC)C(=O)N(C)CC(=O)N(C)[C@H]2C/C=C\CCN(C2=O)[C@@H](Cc2ccc(C(F)(F)F)cc2)C(=O)N(C)CC(=O)N[C@@H](CCc2cc(F)c(C(F)(F)F)c(F)c2)C(=O)N2C[C@H](OCC)C[C@H]2C(=O)NC2(CCC2)C(=O)N(C)[C@@H](C2CCCC2)C(=O)N(C)[C@H](C(=O)N(C)CC)CC(=O)N1C [PP1558]	B (a compound having 3 or more and less than 10 is denoted as B)	8.47	A (a compound having 10 or more and less than 20 is denoted as A)	9.96	–	–	–	–
